Patent US20230159527A1, “COMPOUNDS AS BCL-2 INHIBITORS” (Fochon Pharmaceuticals, Ltd., priority 2020, published 2023)

These compounds were tested on Toledo cells (assay: Cell proliferation assay, Toledo cells (MTS, 72 h)). Settings: Homo sapiens, Toledo cells, MTS, read-out: Toledo IC50.
Assay type: cell-based
Summary of the method: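 IC50 was derived from 490 nm absorbance after a 2 h MTS step. Before that, compounds at 1.5–10000 nM final (nine points) acted on Toledo cells for 72 h at 37 °C, 5% CO2. Cells were seeded at 30000/well in 10% FBS RPMI-1640 and rested 4 h before dosing.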

Compound | IC50
CC(C)c1ccccc1[C@@H]1CCCN1C1CC2(CCN(c3ccc(C(=O)NS(=O)(=O)c4cc5c(c([N+](=O)[O-])c4)N[C@@H](C4CCOCC4)CO5)c(Oc4cnc5[nH]cc(F)c5c4)c3)CC2)C1 (single isomer, unassigned) [Example D-48, 2-((3-fluoro-1H-pyrrolo[2,3-b]pyridin-5-yl)oxy)-4-(2-((R or S)-2-(2-isopropylphenyl)pyrrolidin-1-yl)-7-azaspiro[3.5]nonan-7-yl)-N-(((S)-5-nitro-3-(tetrahydro-2H-pyran-4-yl)-3,4-dihydro-2H-benzo[b][1,4]oxazin-7-yl)sulfonyl) benzamide] | 1 nM
CC(C)c1ccccc1[C@@H]1CCCN1C1CC2(CCN(c3ccc(C(=O)NS(=O)(=O)c4cc5c(c([N+](=O)[O-])c4)S[C@@H]([C@H]4CC[C@](C)(O)CC4)CO5)c(Oc4cnc5[nH]cc(F)c5c4)c3)CC2)C1 (single isomer, unassigned) [Example E-2, 2-((3-fluoro-1H-pyrrolo[2,3-b]pyridin-5-yl)oxy)-N-(((S)-3-((1r,4S)-4-hydroxy-4-methylcyclohexyl)-5-nitro-2,3-dihydrobenzo[b][1,4]oxathiin-7-yl)sulfonyl)-4-(2-((R or S)-2-(2-isopropylphenyl)pyrrolidin-1-yl)-7-azaspiro[3.5]nonan-7-yl)benzamide] | 1 nM
CC(C)c1ccccc1[C@@H]1CCCN1C1CC2(CCN(c3ccc(C(=O)NS(=O)(=O)c4cc5c(c([N+](=O)[O-])c4)N[C@@H]([C@H]4CC[C@](C)(O)CC4)CO5)c(Oc4cc5cc[nH]c5nc4OC[C@H](C)O)c3)CC2)C1 (single isomer, unassigned) [Example D-70, N-(((S)-3-((1r,4S)-4-hydroxy-4-methylcyclohexyl)-5-nitro-3,4-dihydro-2H-benzo[b][1,4]oxazin-7-yl)sulfonyl)-2-((6-((S)-2-hydroxypropoxy)-1H-pyrrolo[2,3-b]pyridin-5-yl)oxy)-4-(2-((R or S)-2-(2-isopropylphenyl)pyrrolidin-1-yl)-7-azaspiro[3.5]nonan-7-yl)benzamide] | 1 nM
CC(C)c1ccccc1[C@@H]1COCCN1C1CC2(CCN(c3ccc(C(=O)NS(=O)(=O)c4cnc(NC[C@H]5CC[C@](C)(O)CC5)c([N+](=O)[O-])c4)c(Oc4cnc5[nH]ccc5c4)n3)CC2)C1 (single isomer, unassigned) [Example A-145, 2-((1H-pyrrolo[2,3-b]pyridin-5-yl)oxy)-N-((6-((((1r,4r)-4-hydroxy-4-methylcyclohexyl)methyl)amino)-5-nitropyridin-3-yl)sulfonyl)-6-(2-((R or S)-3-(2-isopropylphenyl)morpholino)-7-azaspiro[3.5]nonan-7-yl)nicotina-mide] | 1 nM
CC(C)c1ccccc1[C@@H]1CN(S(=O)(=O)C2CC2)CCN1C1CC2(CCN(c3ccc(C(=O)NS(=O)(=O)c4cc5c(c([N+](=O)[O-])c4)N[C@@H]([C@H]4CC[C@](C)(O)CC4)CO5)c(Oc4cnc5[nH]cc(F)c5c4)c3)CC2)C1 (single isomer, unassigned) [Example D-81, 4-(2-((R or S)-4-(cyclopropylsulfonyl)-2-(2-isopropylphenyl)piperazin-1-yl)-7-azaspiro[3.5]nonan-7-yl)-2-((3-fluoro-1H-pyrrolo[2,3-b]pyridin-5-yl)oxy)-N-(((S)-3-((1r,4S)-4-hydroxy-4-methylcyclohexyl)-5-nitro-3,4-dihydro-2H-benzo[b][1,4]oxazin-7-yl)sulfonyl)benzamide] | 1 nM
CC(C)c1ccccc1[C@@H]1CCCN1C1CC2(CCN(c3ccc(C(=O)NS(=O)(=O)c4cc5c(c([N+](=O)[O-])c4)N[C@H]([C@H]4CC[C@@H](O)CC4)CO5)c(Oc4cnc5[nH]cc(F)c5c4)c3)CC2)C1 (single isomer, unassigned) [Example D-43, 2-((3-fluoro-1H-pyrrolo[2,3-b]pyridin-5-yl)oxy)-N-(R)-3-((1s,4S)-4-hydroxycyclohexyl)-5-nitro-3,4-dihydro-2H-benzo[b][1,4]oxazin-7-yl)sulfonyl)-4-(2-((R or S)-2-(2-isopropylphenyl)pyrrolidin-1-yl)-7-azaspiro[3.5]nonan-7-yl)benzamide] | 1 nM
COC(=O)N1CCN(C2CC3(CCN(c4ccc(C(=O)NS(=O)(=O)c5cc6c(c([N+](=O)[O-])c5)N[C@@H]([C@H]5CC[C@](C)(O)CC5)CO6)c(Oc5cnc6[nH]cc(F)c6c5)c4)CC3)C2)[C@H](c2ccccc2C(C)C)C1 (single isomer, unassigned) [Example D-144, methyl (R or S)-4-(7-(3-((3-fluoro-1H-pyrrolo [2,3-b]pyridin-5-yl)oxy)-4-((S)-3-((1r,4S)-4-hydroxy-4-methylcyclohexyl)-5-nitro-3,4-dihydro-2H-benzo[b][1,4]oxazin-7-yl)sulfonyl)carbamoyl)phenyl)-7-azaspiro[3.5] nonan-2-yl)-3-(2-isopropylphenyl) piperazine-1-carboxylate] | 1 nM
CC(C)c1ccccc1[C@@H]1CCCN1C1CC2(CCN(c3ccc(C(=O)NS(=O)(=O)c4cc5c(c([N+](=O)[O-])c4)N[C@@H]([C@H]4CC[C@](C)(O)CC4)CO5)c(Oc4cc5cc[nH]c5nc4OC(F)F)c3)CC2)C1 (single isomer, unassigned) [Example D-11, 2-((6-(difluoromethoxy)-1H-pyrrolo [2,3-b]pyridin-5-yl)oxy)-N-(((S)-3-((1r,4S)-4-hydroxy-4-methylcyclohexyl)-5-nitro-3,4-dihydro-2H-benzo[b][1,4]oxazin-7-yl)sulfonyl)-4-(2-((R or S)-2-(2-isopropylphenyl)pyrrolidin-1-yl)-7-azaspiro[3.5]nonan-7-yl)benzamide] | 1 nM
CC(C)c1ccccc1[C@@H]1CCCN1C1CC2(CCN(c3ccc(C(=O)NS(=O)(=O)c4cc5c(c([N+](=O)[O-])c4)N[C@@H]([C@H]4CC[C@](C)(O)CC4)CO5)c(Oc4cc5cc[nH]c5nc4OCCO)c3)CC2)C1 (single isomer, unassigned) [Example D-68, N-(((S)-3-((1r,4S)-4-hydroxy-4-methylcyclohexyl)-5-nitro-3,4-dihydro-2H-benzo[b][1,4]oxazin-7-yl)sulfonyl)-2-((6-(2-hydroxyethoxy)-1H-pyrrolo[2,3-b]pyridin-5-yl)oxy)-4-(2-((R or S)-2-(2-isopropylphenyl)pyrrolidin-1-yl)-7-azaspiro[3.5]nonan-7-yl)benzamide] | 1 nM
CC(C)c1ccccc1[C@@H]1CCCN1C1CC2(CCN(c3ccc(C(=O)NS(=O)(=O)c4cc5c(c([N+](=O)[O-])c4)N[C@@H]([C@H]4CC[C@](C)(O)CC4)CO5)c(Oc4cc5cc[nH]c5nc4O[C@H]4CCOC4)c3)CC2)C1 (single isomer, unassigned) [Example D-74, N-(((S)-3-((1r,4S)-4-hydroxy-4-methylcyclohexyl)-5-nitro-3,4-dihydro-2H-benzo[b][1,4]oxazin-7-yl)sulfonyl)-4-(2-((R or S)-2-(2-isopropylphenyl)pyrrolidin-1-yl)-7-azaspiro[3.5]nonan-7-yl)-2-((6-(((S)-tetrahydrofuran-3-yl)oxy)-1H-pyrrolo[2,3-b]pyridin-5-yl)oxy)benzamide] | 1 nM
CC(C)c1ccccc1[C@@H]1CCC[C@@H]1N1CC2(CCN(c3ccc(C(=O)NS(=O)(=O)c4cc5c(c([N+](=O)[O-])c4)N[C@@H]([C@H]4CC[C@](C)(O)CC4)CO5)c(Oc4cnc5[nH]cc(F)c5c4)c3)CC2)C1=O (single isomer, unassigned) [Example D-248, 2-((3-fluoro-1H-pyrrolo[2,3-b]pyridin-5-yl)oxy)-N-(((S)-3-((1r,4S)-4-hydroxy-4-methylcyclohexyl)-5-nitro-3,4-dihydro-2H-benzo[b] [1,4]oxazin-7-yl)sulfonyl)-4-(2-((1S,2S or 1R,2R)-2-(2-isopropylphenyl)cyclopentyl)-1-oxo-2,7-diazaspiro [3.5]nonan-7-yl)benzamide] | 1 nM

Same assay, conditions: Homo sapiens, Toledo, read-out: Toledo IC50 (nM)

Compound | IC50
CC(C)c1ccccc1[C@@H]1CCCN1C1CC2(CCN(c3ccc(C(=O)NS(=O)(=O)c4ccc(NC[C@H]5CC[C@](C)(O)CC5)c([N+](=O)[O-])n4)c(Oc4cnc5[nH]ccc5c4)c3)CC2)C1 (single isomer, unassigned) [Example C-2, 2-((1H-pyrrolo[2,3-b]pyridin-5-yl)oxy)-N-((5-((((1r,4r)-4-hydroxy-4-methylcyclohexyl)methyl)amino)-6-nitropyridin-2-yl)sulfonyl)-4-(2-((R or S)-2-(2-isopropylphenyl)pyrrolidin-1-yl)-7-azaspiro[3.5]nonan-7-yl)benzamide] | 1 nM

Same assay, conditions: Toledo cells, MTS, read-out: Toledo IC50

Compound | IC50
CC(C)c1ccccc1[C@H]1CCCN1C1CC2(CCN(c3ccc(C(=O)NS(=O)(=O)c4cc5c(c([N+](=O)[O-])c4)NC([C@H]4COCCO4)CO5)c(Oc4cnc5[nH]cc(F)c5c4)c3)CC2)C1 (single isomer, unassigned) [Example D-50b, N-(((R or S)-3-((S)-1,4-dioxan-2-yl)-5-nitro-3,4-dihydro-2H-benzo[b][1,4]oxazin-7-yl)sulfonyl)-2-((3-fluoro-1H-pyrrolo[2,3-b]pyridin-5-yl)oxy)-4-(2-((R or S)-2-(2-isopropylphenyl)pyrrolidin-1-yl)-7-azaspiro[3.5]nonan-7-yl)benzamide] | 1 nM
CC(C)c1ccccc1C1COCCN1C1CC2(CCN(c3ccc(C(=O)NS(=O)(=O)c4cc5c(c([N+](=O)[O-])c4)S[C@@H](C4CCC(C)(O)CC4)CO5)c(Oc4cnc5[nH]cc(F)c5c4)c3)CC2)C1 (single isomer, unassigned) [Example E-6, 2-((3-fluoro-1H-pyrrolo[2,3-b]pyridin-5-yl)oxy)-N-(((S)-3-((1r,4S)-4-hydroxy-4-methylcyclohexyl)-5-nitro-2,3-dihydrobenzo [b][1,4]oxathiin-7-yl)sulfonyl)-4-(2-((R or S)-3-(2-isopropylphenyl)morpholino)-7-azaspiro[3.5]nonan-7-yl)benzamide] | 1 nM
